# Article PMC7203153, “Rational identification and characterisation of peptide ligands for targeting polysialic acid” (Scientific Reports, 2020)
# Where a SMILES comes first, the peptide text is derived from it.
# How the values were obtained:
# [1] = Peptide microarray affinity screening against α-2,8-PSA (colominic acid); assay type: binding, Escherichia coli; conditions: 10 μM CA
# Procedure: Peptide library synthesis, microarray preparation, and microarray screening were performed as described previously[25] with the following specifications. Siglec-related sequences were N-terminally acetylated to match the charge of the corresponding protein fragment. All peptides were printed in triplicate (60 nL spots), and each initial affinity screening was carried out at least three times. Screening was conducted with 10 μM colominic acid (CA; 5 mL per microarray), the Escherichia coli homolog of α-2,8-PSA identical in structure to human-derived PSA[67], and with antibody-based chemiluminescent detection of CA. For selectivity screening, microarrays were challenged with 10 μM CA with 0, 0.1, 1, and 10 μM α-2,8/9-PSA in separate conditions (5 mL total volume each), where molar concentrations were based on molecular weight estimation of synthesized 2,8/9-PSA (details on α-2,8/9-PSA production, purification, and analysis are provided in Supplementary Information). Selectivity screening with monomeric sialic acid was conducted with mass and molar equivalents of N-acetylneuraminic acid (Rose Scientific, Ltd.) along with 10 μM CA (5 mL total volume each). The mass equivalent amount of sialic acid (specifically, 970 μM sialic acid for a given volume of 10 μM CA) was calculated for CA of an average degree of polymerization of 100. For study of pH-dependent binding, affinity screening with CA was performed using PBS buffers of pH 6.0, 7.0, 7.4, and 8.0 (10 mM phosphate, 100 mM NaCl). The impact of NaCl on peptide binding was assessed at pH 7.4 with 0, 100, and 200 mM NaCl.
# Microarray image and data analysis was performed as described. […] Of the triplicate experiments used to generate mean microarray affinity intensities in standard conditions (within each of which 762 peptides were represented in triplicate), 225 out of 762 values in one of these three experiments were derived from raw data previously reported, but were alternatively analysed as stated. Peptide isoelectric points were calculated with the EMBOSS iep program.
# [2] = Fluorescence anisotropy (FA) assay of peptide–PSA binding; parameters: species or system Escherichia coli
# Procedure: Peptides (Table 2) were synthesized at >95% purity (confirmed with HPLC) by Biomatik (see Supplementary Information). All peptides were N-terminally acetylated and C-terminally labelled with tetramethylrhodamine dye (TAMRA). TAMRA was chosen as a label due to its pH insensitivity compared to FAM (fluorescein) and related dyes commonly used for fluorescence assays. Experiments were conducted in black 384-well plates with non-binding surface (NBS, Corning, Inc.) to minimize background binding and enhance signal-to-noise ratio in the fluorescence-based binding assay. Titrations were carried out through addition of TAMRA-labelled peptide (8 μL, final concentration 20 nM) to CA (72 μL, final concentrations 0–1500 μM) in PBS, pH 7.4 (10 mM phosphate, 100 mM NaCl), and solutions were incubated with agitation to equilibrium at room temperature (3 h, ~20 °C). Parallel and perpendicular intensities were subsequently measured at 530 nm excitation (band width 5 nm) and 580 nm emission (band width 20 nm) in fluorescence polarization mode with a Tecan Infinite M1000 Pro plate reader. Total fluorescence intensities were also measured as a control for fluorophore properties with target binding; fluorescence intensities of free peptide were determined to be approximately equivalent to intensities with peptide–CA mixtures. At higher concentrations of free CA (control with no peptide addition), attenuation of detected light differed in parallel and perpendicular planes, so respective intensities were subtracted from peptide–CA intensities prior to anisotropy calculations. […] Unique samples were screened in at least triplicate within each titration experiment, and each peptide titration was carried out at least twice. In experimental repeats, peptide locations on plates were varied to prevent location-specific effects, if any, and different combinations of peptides were assessed at once. Anisotropies were calculated from corrected parallel and perpendicular intensities, and values were fit to the four-parameter logistic binding model[70] in MATLAB. Prior to curve fitting, anisotropy values for each peptide were transformed through subtraction of minimum values to enhance comparison between peptides. The resulting translations in binding curves were identical, within error, to change in anisotropy curves obtained through subtraction of anisotropy of free labelled peptide. Bmax and KD values obtained were used in the calculation of Bmax/KD ratios for comparison to microarray intensity values, and the Pearson correlation coefficient (r) was determined.
# [3] = FA assay with Neu5Ac; assay type: binding; conditions: absence of PSA; Neu5Ac up to 150 mM; PBS pH 7.4
# Procedure: (§1) a Neu5Ac concentration (µM) b Neu5Ac concentration (µM) c CS-A concentration (µM)
# (§2) Supplementary Figure S4. (a–b) Interaction of I-P24 and I-P264 with Neu5Ac as asses sed by fluorescence anisotropy (FA) titrations in the (a) absence or (b ) presence of 500 µM P S A.
# (§3) For a given volume, the highest concentration tested (150 mM) is approximately mass […]
# (§4) equivalent to 1.5 mM PSA. […]
# (§5) except for a small decrease in anisotropy at the highest concentrations of Neu 5Ac, indicating specific peptide binding to PSA. Error bars represent standard deviations from two independent experiments (0.15–15000 µM), with triplicate intra-as say measurements (0.15–150000 µM) .
# (§6) (c) FA assay for binding of I-P24 and I-P264 to chondroitin sulphate A (CS-A). […] Anisotropies were determined from triplicate measurements (error bars excluded for clarity). […]
# (§7) Asse ssment of selective binding of peptides with the FA assay is only presented in the context of alternative glycans as proof-of-principle above. However, given the comparatively lower sensitivity of microarray screening, FA may be employed for quantifying affinity in various buffers to asses s the effects of various ions, if any, on PSA binding. […]
# (§8) (also on this page, place not known: Assessment assess assessed (b) Neu5Ac, PSA. intra-assay µM). assessment experiments, 5Ac (µM)a cNeu5Ac Anisotropy (mA) Anisotropy (mA) Anisotropy (mA)) […]
# [4] = FA assay with chondroitin sulphate A; conditions: FA assay as for peptide–PSA; triplicate measurements; read-out: KD for binding to CS-A
# Procedure: as §1, §2, §3, §4, §5, §6, §7, §8
compound,measurement,setting,value
CC(=O)N[C@@H](Cc1ccccc1)C(=O)N[C@@H](CCCCN)C(=O)NCC(=O)N[C@@H](CCCNC(=N)N)C(=O)N[C@H](C(=O)N[C@@H](CO)C(=O)N1CCC[C@H]1C(=O)N[C@@H](CCCCN)C(=O)N[C@H](C(=O)NCC(=O)N[C@@H](C)C(=O)N1CCC[C@H]1C(=O)N[C@H](C(=O)N[C@@H](C)C(=O)N[C@H](C(N)=O)[C@@H](C)O)C(C)C)[C@@H](C)O)[C@@H](C)O [I-P24] (Ac-FKGRTSPKTGAPVAT-NH2),change in microarray binding with 200 mM vs 100 mM NaCl,[1]; pH 7.4,did not display any change in binding
same,microarray binding to PSA without NaCl,"[1]; pH 7.4, 0 mM NaCl",detectable binding
same,microarray binding intensity (rank within library),"[1]; 762-peptide library, three independent screens, triplicate measurements",top 2%
same,binding to PSA in competitive FA assay with Neu5Ac,"[2]; 500 µM PSA (CA), Neu5Ac 0–150 mM, PBS pH 7.4",largely maintained
same,Kd,"[2]; FA titration, N-acetylated, C-terminally TAMRA-labelled peptide 20 nM, CA 0–1500 μM, PBS pH 7.4 (10 mM phosphate, 100 mM NaCl), 3 h, ~20 °C, four-parameter logistic fit, at least two independent experiments, at least triplicate, * = accuracy likely poor (SE > KD)",521 µM
same,Bmax/KD ratio (binding potential),"[2]; from FA curve fits, among the peptides characterised with FA",highest
same,binding to Neu5Ac by FA titration,[3],minimal
same,Kd,[4],> 1000 µM
